Calls of active or inactive are those of the source. No rule for the calls is given here.
Molecular target: methionyl-tRNA synthetase (Trypanosoma brucei brucei) (UniProt Q38C91)
Assay: T. brucei MetRS inhibitors, dose response, biochemical, luminescence (AID 651971)
Conditions: recombinant T. brucei MetRS, luminescence (ATP consumption)

methionyl-tRNA synthetase (Trypanosoma brucei brucei), sequence (Q38C91 1-773): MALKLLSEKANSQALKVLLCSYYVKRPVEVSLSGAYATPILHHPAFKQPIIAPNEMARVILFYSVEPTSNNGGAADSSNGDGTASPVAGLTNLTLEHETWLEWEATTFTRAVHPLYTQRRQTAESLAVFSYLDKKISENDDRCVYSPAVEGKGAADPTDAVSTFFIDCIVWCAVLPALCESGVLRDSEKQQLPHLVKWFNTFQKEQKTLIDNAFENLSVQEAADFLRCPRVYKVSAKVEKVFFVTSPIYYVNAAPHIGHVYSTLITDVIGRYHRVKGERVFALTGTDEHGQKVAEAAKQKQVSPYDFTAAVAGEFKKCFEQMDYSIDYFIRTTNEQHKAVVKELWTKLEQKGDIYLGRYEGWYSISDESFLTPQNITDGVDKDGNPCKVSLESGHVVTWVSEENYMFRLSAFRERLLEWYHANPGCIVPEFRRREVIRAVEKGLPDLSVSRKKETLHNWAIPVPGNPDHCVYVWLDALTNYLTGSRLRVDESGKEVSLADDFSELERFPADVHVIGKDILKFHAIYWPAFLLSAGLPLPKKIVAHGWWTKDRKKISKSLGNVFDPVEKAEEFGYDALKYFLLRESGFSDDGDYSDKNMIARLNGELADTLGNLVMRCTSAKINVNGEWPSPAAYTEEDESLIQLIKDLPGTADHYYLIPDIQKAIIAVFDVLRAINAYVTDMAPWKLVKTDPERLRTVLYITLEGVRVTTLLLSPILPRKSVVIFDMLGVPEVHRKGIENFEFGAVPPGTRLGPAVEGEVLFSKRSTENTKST

IC50: > 119 µM (inactive)
Structure (SMILES): Cc1ccc(C(=O)Nn2c(O)c(C=C3N=c4ccccc4=N3)sc2=S)cc1

From PubChem BioAssay AID651971 (The Scripps Research Institute Molecular Screening Center, 2013)
